Measured values published in patent US20230012368A1 (Hoffmann-La Roche Inc., priority 2018, published 2023).
Counter-ions that a name gives are not always drawn. Like-named read-outs stand apart in the source and are kept apart here.

Test system: Acinetobacter baumannii ATCC 17978
Assay: Antimicrobial susceptibility testing: 90% growth inhibitory concentration (IC90) determination
Type: cell-based
Conditions: 90% growth inhibitory concentration, Acinetobacter baumannii ATCC17978, Iso-Sensitest broth, OD 600 nm over 16h, read-out: ATCC17978 IC90
How it was run: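 Compounds serially twofold diluted (e.g. 50 to 0.097 μM final) in Iso-Sensitest broth, inoculated at ~5×10^(5) CFU/ml, incubated at 35±2° C. OD600 read every 20 minutes over 16h. IC90 taken as concentration inhibiting 90% of growth during logarithmic phase.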

[1] = Acinetobacter baumannii, ATCC17978, 16 h

| SMILES | IC90 [1] [nM] | IC90 [nM] |
| --- | --- | --- |
| COc1ccc(-c2cnc3c(Nc4ccc(C(=O)NC[C@H](N)CNC(=O)[C@@H]5C[C@@H](O)CN5)c(C)c4)nccn23)c(F)c1F [Example 469, (2S,4R)-N-[(2S)-2-amino-3-[[4-[[3-(2,3-difluoro-4-methoxy-phenyl)imidazo[1,2-a]pyrazin-8-yl]amino]-2-methyl-benzoyl]amino]propyl]-4-hydroxy-pyrrolidine-2-carboxamide; formic acid] | 500 |  |
| COc1ccc(-c2cnc3c(Nc4ccc(C(=O)NCCN5CCNCC5)c(C)c4)nccn23)c(F)c1F [Example 377, 4-[[3-(2,3-difluoro-4-methoxyphenyl)imidazo[1,2-a]pyrazin-8-yl]amino]-2-methyl-N-(2-piperazin-1-ylethyl)benzamide] | 180 |  |
| COc1ccc(-c2cnc3c(Nc4ccc(C(=O)N(C)CC5CCNCC5)c(C)c4)nccn23)cc1F [Example 210, 4-[[3-(3-fluoro-4-methoxyphenyl)imidazo[1,2-a]pyrazin-8-yl]amino]-N,2-dimethyl-N-(piperidin-4-ylmethyl)benzamide;hydrochlo-ride] | 630 |  |
| CCc1cc(Nc2nccn3c(-c4ccc(OC)c(F)c4F)cnc23)ccc1C(=O)NCC(O)CNC(=O)[C@@H](N)CCCN (mixture of isomers) [Example 413, rac-N-(3-((R)-2,5-diaminopentanamido)-2-hydroxypropyl)-4-((3-(2,3-difluoro-4-methoxyphenyl)imidazo[1,2-a]pyrazin-8-yl)amino)-2-ethylbenzamide dihydrochloride] | 470 |  |
| COc1ccc(-c2cnc3c(Nc4ccc(C(=O)N(C)CCN5CCNCC5)c(Cl)c4)nccn23)c(F)c1F [Example 44, 2-chloro-4-[[3-(2,3-difluoro-4-methoxy-phenyl)imidazo[1,2-a]pyrazin-8-yl]amino]-N-methyl-N-(2-piperazin-1-ylethyl)benzamide; 2,2,2-trifluoroacetic acid] |  | 120 |
| COc1ccc(-c2cnc3c(Nc4ccc(C(=O)N(C)CC5CCOCC5)c(C)c4)nccn23)cc1F [Example 35, 4-[[3-(3-fluoro-4-methoxy-phenyl)imidazo[1,2-a]pyrazin-8-yl]amino]-N,2-dimethyl-N-(tetrahydropyran-4-ylmethyl)benzamide; 2,2,2-trifluoroacetic acid] |  | 1200 |
| O=C(NCC1CCNCC1)c1ccc(Nc2nccn3c(-c4ccc(OC(F)F)c(F)c4F)cnc23)cc1Cl [Example 43, 2-chloro-4-[[3-[4-(difluoromethoxy)-2,3-difluoro-phenyl]imidazo[1,2-a]pyrazin-8-yl]amino]-N-(4-piperidylmethyl) benzamide; 2,2,2-trifluoroacetic acid] | 220 |  |
| CCc1cc(Nc2nccn3c(-c4ccc(OC)c(F)c4F)cnc23)ccc1C(=O)NCC(O)CNC(=O)[C@@H](N)CN (mixture of isomers) [Example 415, N-[3-[[(2S)-2,3-diaminopropanoyl]amino]-2-hydroxypropyl]-4-[[3-(2,3-difluoro-4-methoxyphenyl)imidazo[1,2-a]pyrazin-8-yl]amino]-2-ethylbenzamide;dihydrochlo-ride] | 520 |  |
| COc1ccc(-c2cnc3c(Nc4cc(C)c(C(=O)NCCCN)c(F)c4)nccn23)c(F)c1F [Example 427, N-(3-aminopropyl)-4-((3-(2,3-difluoro-4-methoxyphenyl)imidazo[1,2-a]pyrazin-8-yl)amino)-2-fluoro-6-methylbenzamide formate] | 690 |  |
| COc1ccc(-c2cnc3c(Nc4ccc(C(=O)N(C)CCN5CCOC(CN(C)C)C5)c(C)c4)nccn23)cc1F (stereo not drawn) [Example 108, N-[2-[2-[(dimethylamino)methyl]morpholin-4-yl]ethyl]-4-[[3-(3-fluoro-4-methoxy-phenyl)imidazo[1,2-a]pyrazin-8-yl]amino]-N,2-dimethyl-benzamide; formic acid] |  | 1200 |
| CCc1cc(Nc2nccn3c(-c4ccc(OC)c(F)c4F)cnc23)ccc1C(=O)NCCC(=O)N1CCN[C@H](CO)C1 [Example 160, 4-[[3-(2,3-difluoro-4-methoxy-phenyl)imidazo[1,2-a]pyrazin-8-yl]amino]-2-ethyl-N-[3-[(3S)-3-(hydroxymethyl)piperazin-1-yl]-3-oxo-propyl]benzamide] | 150 |  |
| CCc1cc(Nc2nccn3c(-c4ccc(OC)cc4C(F)(F)F)cnc23)ccc1C(=O)NC [Example 537, 2-ethyl-4-[[3-[4-methoxy-2-(trifluoromethyl)phenyl]imid-azo[1,2-a]pyrazin-8-yl]amino]-N-methyl-benzamide] | 207 |  |
| CCc1cc(Nc2nccn3c(-c4ccc(OC)c(F)c4F)cnc23)ccc1C(=O)NCC(O)CNC(=O)[C@@H](N)CCCNC(=N)N (mixture of isomers) [Example 405, rac-N-(3-((R)-2-amino-5-guanidinopentanamido)-2-hydroxypropyl)-4-((3-(2,3-difluoro-4-methoxyphenyl)imidazo[1,2-a]pyrazin-8-yl)amino)-2-ethylbenzamide diformate] |  | 360 |

More lines, main results first:

| IC90 [1] [nM] | SMILES | IC90 [nM] |
| --- | --- | --- |
| 410 | CCc1cc(Nc2nccn3c(-c4ccc(OC)c(F)c4F)cnc23)ccc1C(=O)NCCNC(=O)[C@@H](N)CCCN [Example 397, N-[2-[[(2S)-2,5-diaminopentanoyl]amino]eth-yl]-4-[[3-(2,3-difluoro-4-methoxy-phenyl)imidazo[1,2-a]pyrazin-8-yl]amino]-2-ethyl-benzamide; formic acid] |  |
| 110 | CCc1cc(Nc2nccn3c(-c4ccc(OC)c(F)c4F)cnc23)ccc1C(=O)NC[C@H]1CCNC1 [Example 530, (S)-4-((3-(2,3-difluoro-4-methoxyphenyl)imidazo[1,2-a]pyrazin-8-yl)amino)-2-ethyl-N-(pyrrolidin-3-ylmethyl)benzamide hydrochloride] |  |
| 310 | CCc1cc(Nc2nccn3c(-c4ccc(OC)c(F)c4F)cnc23)ccc1C(=O)NC[C@@H](C)NC(=O)[C@@H](N)CCCNC(=N)N [Example 122, N-[(2R)-2-[[(2S)-2-amino-5-guanidino-pentanoyl]amino]propyl]-4-[[3-(2,3-difluoro-4-methoxy-phenyl)imidazo[1,2-a]pyrazin-8-yl]amino]-2-ethyl-benzamide formate] |  |
| 270 | COc1ccc(-c2cnc3c(Nc4ccc(C(=O)NCCN5CCNCC5)c(Cl)c4)nccn23)cc1F [Example 188, 2-chloro-4-[[3-(3-fluoro-4-methoxyphenyl)imidazo[1,2-a]pyrazin-8-yl]amino]-N-(2-piperazin-1-ylethyl)benzamide;hydrochlo-ride] |  |
| 4900 | Cc1cc(Nc2nccn3c(-c4ccc(OC(F)F)cc4)cnc23)ccc1C(=O)NCC1(O)CCNCC1 [Example 261, 4-[[3-[4-(difluoromethoxy)phenyl]im-idazo[1,2-a]pyrazin-8-yl]amino]-N-[(4-hydroxypiperidin-4-yl)methyl]-2-methylbenzamide; hydrochlo-ride] |  |
| 80 | CCc1cc(Nc2nccn3c(-c4ccc(OC)c(F)c4F)cnc23)ccc1C(=O)NCCCNC(=O)CN [Example 103, N-(3-(2-aminoacetamido)propyl)-4-((3-(2,3-difluoro-4-methoxyphenyl)imidazo [1,2-a]pyrazin-8-yl)amino)-2-ethylbenzamide hydrochloride] |  |
| 85 | CCc1cc(Nc2nccn3c(-c4ccc(OC)c(F)c4F)cnc23)ccc1C(=O)NCCCCCCn1ccnc1 [Example 535, N-(6-(1H-imidazol-1-yl)hexyl)-4-((3-(2,3-difluoro-4-methoxyphenyl)imidazo[1,2-a]pyrazin-8-yl)amino)-2-ethylbenzamide] |  |
| 350 | Cc1cc(Nc2nccn3c(-c4ccc(Cl)c(F)c4F)cnc23)ccc1C(=O)NCCC1CCNCC1 [Example 193, 4-[[3-(4-chloro-2,3-difluorophenyl)imidazo[1,2-a]pyrazin-8-yl]amino]-2-methyl-N-(2-piperidin-4-ylethyl)benzamide;hydrochlo-ride] |  |
| 980 | CNC(=O)c1ccc(Nc2nccn3c(-c4ccc(OC(F)F)cc4)cnc23)cc1C(C)C [Example 166, 4-[[3-[4-(difluoromethoxy)phenyl]imidazo[1,2-a]pyrazin-8-yl]amino]-2-isopropyl-N-methyl-benzamide] |  |
| 300 | CCc1cc(Nc2nccn3c(-c4ccc(OC)c(F)c4F)cnc23)ccc1C(=O)N[C@H](C)CNC(=O)[C@@H](N)CCCNC(=N)N [Example 331, N-[(2R)-1-[[(2S)-2-amino-5-carbamimidamidopentanoyl]amino]propan-2-yl]-4-[[3-(2,3-difluoro-4-methoxyphenyl)imidazo[1,2-a]pyrazin-8-yl]amino]-2-ethylbenzamide;formic acid] |  |
| 1900 | Cc1cc(Nc2nccn3c(-c4ccc(Cl)c(F)c4F)cnc23)ccc1C(=O)N(C)CCN [Example 241, N-(2-aminoethyl)-4-[[3-(4-chloro-2,3-difluorophenyl)imidazo[1,2-a]pyrazin-8-yl]amino]-N,2-dimethylbenzamide;hydrochlo-ride] |  |
| 5600 | Cc1cc(Nc2nccn3c(-c4ccc(OC(F)F)cc4)cnc23)ccc1C(=O)NC[C@@H](C)N [Example 268, N-[(2R)-2-aminopropyl]-4-[[3-[4-(difluoromethoxy)phenyl]im-idazo[1,2-a]pyrazin-8-yl]amino]-2-methylbenzamide;hydrochlo-ride] |  |
| 210 | CCc1cc(Nc2nccn3c(-c4ccc(OC(F)F)c(F)c4F)cnc23)ccc1C(=O)N[C@@H](C)CNC(=O)C1CCNCC1 (racemic) [Example 552, rac-(R)-N-(2-(4-((3-(4-(difluoromethoxy)-2,3-difluorophenyl)imidazo[1,2-a]pyrazin-8-yl)amino)-2-ethylbenzamido)propyl)piper-idine-4-carboxamide formate] |  |
| 90 | Cc1cc(Nc2nccn3c(-c4ccc(OCC#N)c(F)c4F)cnc23)ccc1C(=O)NCCNC(=O)[C@@H]1C[C@](C)(O)CN1 [Example 133, (2S,4S)-N-[2-[[4-[[3-[4-(cyanomethoxy)-2,3-difluoro-phenyl]imidazo[1,2-a]pyrazin-8-yl]amino]-2-methyl-benzoyl]amino]ethyl]-4-hydroxy-4-methyl-pyrrolidine-2-carboxamide formate] |  |
